Columns and labels:
Assay in all cases: relative viability (nuclei count vs DMSO), 5 days (fraction); higher = more cells survive
A-427 = tested on: A-427
In short: (§1)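 After 5 days of treatment, lung cancer cells in 1536-well plates were fixed and stained in a single step (final 0.05% Triton X-100, 1% formaldehyde, 1 ug/ml Hoechst) and their nuclei counted on 4× images. Treatment had been applied by pin tool the day after seeding as one drug alone or as a fixed anchor-drug dose with five library-drug doses (not always all listed) in √10 steps. Relative viability is the nuclei count of treated wells divided by that of vehicle wells, and values are medians of duplicate plates.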

H3255 = tested on: H3255
In short: as §1

HARA = tested on: HARA
In short: as §1

HCC-15 = tested on: HCC-15
In short: as §1

HCC-366 = tested on: HCC-366
In short: as §1

LXF-289 = tested on: LXF-289
In short: as §1

NCI-H1437 = tested on: NCI-H1437
In short: as §1

NCI-H1755 = tested on: NCI-H1755
In short: as §1

NCI-H1793 = tested on: NCI-H1793
In short: as §1

NCI-H1915 = tested on: NCI-H1915
In short: as §1

NCI-H1975 = tested on: NCI-H1975
In short: as §1

NCI-H2009 = tested on: NCI-H2009
In short: as §1

NCI-H2023 = tested on: NCI-H2023
In short: as §1

NCI-H2405 = tested on: NCI-H2405
In short: as §1

NCI-H3122 = tested on: NCI-H3122
In short: as §1

NCI-H441 = tested on: NCI-H441
In short: as §1

NCI-H460 = tested on: NCI-H460
In short: as §1

NCI-H596 = tested on: NCI-H596
In short: as §1

NCI-H650 = tested on: NCI-H650
In short: as §1

PC-14 = tested on: PC-14
In short: as §1

PC-3 [JPC-3] = tested on: PC-3 [JPC-3]
In short: as §1

SK-LU-1 = tested on: SK-LU-1
In short: as §1

UMC-11 = tested on: UMC-11
In short: as §1

O=C(O)CCCCC(CCSCc1ccccc1)SCc1ccccc1 (stereo not drawn) [CPI-613] + COc1cccc2cc(-c3nc([C@H]4CC[C@H](C(=O)O)CC4)n4ncnc(N)c34)[nH]c12 [OSI-027] (partner 0.5 µM)
relative viability (A-427; first compound 5 µM): 0.416 | relative viability (A-427; first compound 15.81 µM): 0.423 | relative viability (A-427; first compound 50 µM): 0.387 | relative viability (A-427; first compound 158.11 µM): 0.348 | relative viability (A-427; first compound 500 µM): 0.154 | relative viability (H3255; first compound 5 µM): 0.569 | relative viability (H3255; first compound 15.81 µM): 0.501 | relative viability (H3255; first compound 50 µM): 0.612 | relative viability (H3255; first compound 500 µM): 0.471 | relative viability (HARA; first compound 15.81 µM): 0.482 | relative viability (HARA; first compound 50 µM): 0.387 | relative viability (HARA; first compound 158.11 µM): 0.188 | relative viability (HARA; first compound 500 µM): 0.0367 | relative viability (HCC-15; first compound 5 µM): 0.552 | relative viability (HCC-15; first compound 15.81 µM): 0.602 | relative viability (HCC-15; first compound 50 µM): 0.586 | relative viability (HCC-15; first compound 158.11 µM): 0.364 | relative viability (HCC-15; first compound 500 µM): 0.0388 | relative viability (HCC-366; first compound 5 µM): 0.924 | relative viability (HCC-366; first compound 15.81 µM): 0.787 | relative viability (HCC-366; first compound 50 µM): 1.08 | relative viability (HCC-366; first compound 158.11 µM): 0.244 | relative viability (HCC-366; first compound 500 µM): 0.0116 | relative viability (LXF-289; first compound 5 µM): 0.788 | relative viability (LXF-289; first compound 15.81 µM): 0.694 | relative viability (LXF-289; first compound 50 µM): 0.733 | relative viability (LXF-289; first compound 158.11 µM): 0.404 | relative viability (LXF-289; first compound 500 µM): 0.0382 | relative viability (NCI-H1437; first compound 5 µM): 0.892 | relative viability (NCI-H1437; first compound 15.81 µM): 0.814 | relative viability (NCI-H1437; first compound 50 µM): 0.818 | relative viability (NCI-H1437; first compound 158.11 µM): 0.245 | relative viability (NCI-H1437; first compound 500 µM): 0.0279 | relative viability (NCI-H1755; first compound 5 µM): 0.693 | relative viability (NCI-H1755; first compound 15.81 µM): 0.687 | relative viability (NCI-H1755; first compound 50 µM): 0.66 | relative viability (NCI-H1755; first compound 158.11 µM): 0.504 | relative viability (NCI-H1755; first compound 500 µM): 0.207 | relative viability (NCI-H1793; first compound 5 µM): 0.277 | relative viability (NCI-H1793; first compound 15.81 µM): 0.241 | relative viability (NCI-H1793; first compound 50 µM): 0.245 | relative viability (NCI-H1793; first compound 158.11 µM): 0.171 | relative viability (NCI-H1793; first compound 500 µM): 0.0629 | relative viability (NCI-H1915; first compound 5 µM): 0.557 | relative viability (NCI-H1915; first compound 15.81 µM): 0.538 | relative viability (NCI-H1915; first compound 50 µM): 0.485 | relative viability (NCI-H1915; first compound 158.11 µM): 0.447 | relative viability (NCI-H1915; first compound 500 µM): 0.001 | relative viability (NCI-H1975; first compound 5 µM): 0.693 | relative viability (NCI-H1975; first compound 15.81 µM): 0.589 | relative viability (NCI-H1975; first compound 50 µM): 0.741 | relative viability (NCI-H1975; first compound 158.11 µM): 0.245 | relative viability (NCI-H1975; first compound 500 µM): 0.0526 | relative viability (NCI-H2009; first compound 5 µM): 0.599 | relative viability (NCI-H2009; first compound 15.81 µM): 0.58 | relative viability (NCI-H2009; first compound 50 µM): 0.46 | relative viability (NCI-H2009; first compound 158.11 µM): 0.0782 | relative viability (NCI-H2009; first compound 500 µM): 0.0289 | relative viability (NCI-H2023; first compound 5 µM): 0.407 | relative viability (NCI-H2023; first compound 15.81 µM): 0.303 | relative viability (NCI-H2023; first compound 50 µM): 0.29 | relative viability (NCI-H2023; first compound 158.11 µM): 0.0518 | relative viability (NCI-H2023; first compound 500 µM): 0.0054 | relative viability (NCI-H2405; first compound 5 µM): 0.638 | relative viability (NCI-H2405; first compound 15.81 µM): 0.582 | relative viability (NCI-H2405; first compound 50 µM): 0.588 | relative viability (NCI-H2405; first compound 158.11 µM): 0.533 | relative viability (NCI-H2405; first compound 500 µM): 0.513 | relative viability (NCI-H3122; first compound 5 µM): 0.9 | relative viability (NCI-H3122; first compound 15.81 µM): 0.876 | relative viability (NCI-H3122; first compound 50 µM): 0.7 | relative viability (NCI-H3122; first compound 158.11 µM): 0.39 | relative viability (NCI-H3122; first compound 500 µM): 0.045 | relative viability (NCI-H441; first compound 5 µM): 0.615 | relative viability (NCI-H441; first compound 15.81 µM): 0.596 | relative viability (NCI-H441; first compound 50 µM): 0.586 | relative viability (NCI-H441; first compound 158.11 µM): 0.255 | relative viability (NCI-H441; first compound 500 µM): 0.0397 | relative viability (NCI-H460; first compound 5 µM): 0.636 | relative viability (NCI-H460; first compound 15.81 µM): 0.422 | relative viability (NCI-H460; first compound 50 µM): 0.535 | relative viability (NCI-H460; first compound 158.11 µM): 0.173 | relative viability (NCI-H460; first compound 500 µM): 0.0125 | relative viability (NCI-H596; first compound 5 µM): 0.673 | relative viability (NCI-H596; first compound 15.81 µM): 0.623 | relative viability (NCI-H596; first compound 50 µM): 0.832 | relative viability (NCI-H596; first compound 158.11 µM): 0.489 | relative viability (NCI-H596; first compound 500 µM): 0.0755 | relative viability (NCI-H650; first compound 5 µM): 0.445 | relative viability (NCI-H650; first compound 15.81 µM): 0.415 | relative viability (NCI-H650; first compound 50 µM): 0.466 | relative viability (NCI-H650; first compound 158.11 µM): 0.346 | relative viability (NCI-H650; first compound 500 µM): 0.373 | relative viability (PC-14; first compound 5 µM): 0.736 | relative viability (PC-14; first compound 15.81 µM): 0.756 | relative viability (PC-14; first compound 50 µM): 0.702 | relative viability (PC-14; first compound 158.11 µM): 0.0567 | relative viability (PC-14; first compound 500 µM): 0.0096 | relative viability (PC-3 [JPC-3]; first compound 5 µM): 0.753 | relative viability (PC-3 [JPC-3]; first compound 15.81 µM): 0.658 | relative viability (PC-3 [JPC-3]; first compound 50 µM): 0.729 | relative viability (PC-3 [JPC-3]; first compound 158.11 µM): 0.517 | relative viability (PC-3 [JPC-3]; first compound 500 µM): 0.276 | relative viability (SK-LU-1; first compound 5 µM): 0.285 | relative viability (SK-LU-1; first compound 15.81 µM): 0.26 | relative viability (SK-LU-1; first compound 50 µM): 0.296 | relative viability (SK-LU-1; first compound 158.11 µM): 0.152 | relative viability (SK-LU-1; first compound 500 µM): 0.0346 | relative viability (UMC-11; first compound 5 µM): 0.407 | relative viability (UMC-11; first compound 15.81 µM): 0.369 | relative viability (UMC-11; first compound 50 µM): 0.426 | relative viability (UMC-11; first compound 158.11 µM): 0.124 | relative viability (UMC-11; first compound 500 µM): 0.118
